Laboratory results as given in ChEMBL document CHEMBL1147402, “Synthesis and antitumour activity of pyrene-linked pyrrolo [2,1-c]benzodiazepine hybrids” (Bioorg Med Chem Lett, 2004).

Experiments:
Type in all cases: functional
Settings in all cases: Homo sapiens, read-out: LC50 (the source's name)
[1] = test system: DU-145; assay: In vitro cytotoxicity against prostate DU-145 cell line
[2] = test system: SR; assay: In vitro cytotoxicity against leukemia SR cell line
[3] = test system: A498; assay: In vitro cytotoxicity against […] cell line
[4] = test system: SF-539; assay: In vitro cytotoxicity against CNS SF-539 cell line
[5] = test system: M14; assay: In vitro cytotoxicity against melanoma M14 cell line
[6] = test system: SNB-19; assay: In vitro cytotoxicity against CNS SNB-19 cell line
[7] = test system: NCI-H226; assay: In vitro cytotoxicity against non-small cell lung NCI-H226 cell line
[8] = test system: HCC 2998; assay: In vitro cytotoxicity against colon […] cell line

For `COc1cc2c(cc1OCCCC(=O)Nc1cc3cccc4ccc5cccc1c5c43)N=C[C@@H]1CCCN1C2=O`, the CC50 [1] was 240 nM, the CC50 [2] was 50 nM and the CC50 [3] was 40 nM. For the same molecule, the CC50 [4] was 180 nM, the CC50 [5] was 50 nM and the CC50 [6] was 420 nM. The CC50 [7] was less than 10 nM and the CC50 [8] was 10 nM.
